Data reported in PMC10076467 (EJNMMI Research, 2023).
Like-named read-outs stand apart in the source and are kept apart here. Values belong to the molecule of their own block, whether it stands above or below them.

Columns and labels:
PC12 cell σ2 receptors = molecular target: T1, PC12 cell σ2 receptors (Rattus norvegicus, UniProt Q5U3Y7); test: PDSP σ2 receptor binding
T1 construct: endogenous in cells; host or cells: PC12 cells
T1 sequence (Q5U3Y7 1-176): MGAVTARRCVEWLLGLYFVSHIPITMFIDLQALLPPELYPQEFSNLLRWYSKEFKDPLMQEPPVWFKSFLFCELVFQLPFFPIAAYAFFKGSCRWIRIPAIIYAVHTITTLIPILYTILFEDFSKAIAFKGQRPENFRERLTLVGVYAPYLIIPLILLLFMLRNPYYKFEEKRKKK
Description: (§1) NR2B-Me was submitted to the PDSP for assessment of binding affinity against a wide range of other receptors and binding sites. A full listing of these receptors and binding sites is given in the Supplemental Results. Detailed assay protocols are available at the PDSP website (http://pdsp.cwru.edu).
(§2) Assessment of Binding Affinity against a Wide Range of Other Receptors and Binding Sites. NR2B-Me was submitted to the National Institute of Mental Health Psychoactive Drug Screening program (NIMH-PDSP) to assess binding affinity against a wide range of other receptors and binding sites (5-HT1A, 1B, 1D, 1E, 2A, 2A agonist, 2A antagonist, 2B, 2B agonist, 2B antagonist, 2C, 2C agonist, 2C antagonist, 3, 5A, 6, 7; α2; α2β2, α2β2, α3β2, α3β4, α4β2, α4β4, α7; α1A, 1A agonist, 1B, 1B agonist, 1B antagonist, 2A-2C; AMPA*; β1-3; BZPa1-3, a5, a6, rat brain site; Ca^2+-Channel; CB1-2, D1, 2, 2 agonist, 2 antagonist, 3-5; DAT; DOR; EP1-4; GABAA,B; GPR40,41,43; H1-4; HERG; IMIDAZOLINE 1; KA-R*; KOR, KORagonist, antagonist; M1, 1 agonist, 1 antagonist, 2, 3, 3 agonist, 3 antagonist, 4, 5, 5 agonist, 5 antagonist; MDR 1; mGluR1A,2,4,5,5-cloned,5-rat brain,6,8; MOR; Na^+-Channel; NET; NK1, 1 antagonist, 2, 2 antagonist, 3, 3 antagonist; NMDA; NMDA/MK801; NT-1; OXYTOCINagonist, antagonist; PAR1agonist, antagonist; PCP; PKCA, B, D, E, G; PTHR2, Purinergicagonist, antagonist; SET; σ1,2; V1, 1 agonist, 1 antagonist, 2, 2 agonist, 2 antagonist, 3, 3 agonist, 3 antagonist, VMAT1, 2).

guinea pig σ1 receptor = guinea pig σ1 receptor (Cavia porcellus, UniProt Q60492); test: PDSP σ1 receptor binding
Description: as §1, §2

σ1 receptor = conditions: reference radioligand ^3H-pentazocine, read-out: Ki for σ1, cited from earlier work
GluN2B receptors [1] = molecular target: T2, GluN2B receptors (Rattus norvegicus, UniProt P35439+Q00960); test: ED50 for pre-blocking of GluN2B radioligand uptake in rat whole brain (PET); format: in vivo; conditions: for ED50 in rat whole brain in vivo ^11C-(−)-NR2B-Me: radioligand ^11C-(−)-NR2B-Me
T2 construct: from tissue; host or cells: brain of living male rats (PET imaging)
Method: (§3) For radioligand injection, a polyethylene catheter (PE 10) was inserted into the penile vein of a male rat and then secured with tissue adhesive and tape. […] Body temperature was monitored with a rectal probe. All PET scans were performed on a microPET Focus 220 scanner (Siemens Medical Solutions) (7,8). Data were acquired in listmode and reconstructed with Fourier rebinning + 2D filtered backprojection. A transmission scan was acquired before radioligand injection for attenuation correction. Dynamic scanning began at the time of a one-minute intravenous bolus injection of the radioligand under study (55 ± 19 MBq; volume 0.2 to 1.0 mL). The injected mass dose was 3 ± 1 nmol/kg. Challenge agents were administered intravenously 10 minutes before the radioligand for pre-blocking studies or 10 minutes after the radioligand for displacement studies. Tomographic images were analyzed with pixel-wise modeling computer software (PMOD 2.6; PMOD Group). Regions-of-interest in the brain were delineated, and time-activity curves calculated as SUV versus time.
(§4) Pre-blocking and displacement experiments were performed to assess radioligand target engagement and radioligand selectivity in vivo. […] Areas-under the curve (AUCs) from time-activity curves between 20 and 90 minutes were calculated for each radioligand. AUCs obtained from the same production of radioligand were scaled to the value (or mean value) for the baseline experiment to give relative values (relative AUC20–90 min). […] Where data permitted, the dose-response curves were fitted with GraphPad Prism software (version 8.1.1; GraphPad) to estimate the ED50 values. A dummy value of 100 pmol per kg body weight was used for zero concentration of the challenge agent in the construction of these dose-response curves. Numerical data are expressed as mean ± S.D. for n>2, or as mean and range for n = 2.

σ2 receptor = conditions: reference radioligand ^3H-DTG, read-out: Ki for σ2, cited from earlier work
[2] = rat, cited from earlier work
[3] = set-up: method as in PMID 30030340; conditions: rhesus monkeys, PET; cited from earlier work
GluN2B receptors [4] = molecular target: T2, GluN2B receptors; test: PET displacement / pre-blocking of ^11C-NR2B-Me radioligands with Ro-25-6981, Lassen plots; format: in vivo; conditions: for BPND (SUVBL/SUVND−1), whole rat brain: Lassen (SUV) plots; for non-displaceable binding (X-axis intercept of Lassen plots): rat brain, pre-blocking with 0.25 mg/kg Ro-25-6981, on average; for displacement from peak value at 90 min: rat whole brain, Ro-25-6981 0.25 mg/kg i.v. 10 min after radioligand, n = 1
Method: as §3, §4

[5] = 30 min after intravenous injection
[6] = 45 min after intravenous injection

T2 sequence (Q00960 27-1482, other chains not shown): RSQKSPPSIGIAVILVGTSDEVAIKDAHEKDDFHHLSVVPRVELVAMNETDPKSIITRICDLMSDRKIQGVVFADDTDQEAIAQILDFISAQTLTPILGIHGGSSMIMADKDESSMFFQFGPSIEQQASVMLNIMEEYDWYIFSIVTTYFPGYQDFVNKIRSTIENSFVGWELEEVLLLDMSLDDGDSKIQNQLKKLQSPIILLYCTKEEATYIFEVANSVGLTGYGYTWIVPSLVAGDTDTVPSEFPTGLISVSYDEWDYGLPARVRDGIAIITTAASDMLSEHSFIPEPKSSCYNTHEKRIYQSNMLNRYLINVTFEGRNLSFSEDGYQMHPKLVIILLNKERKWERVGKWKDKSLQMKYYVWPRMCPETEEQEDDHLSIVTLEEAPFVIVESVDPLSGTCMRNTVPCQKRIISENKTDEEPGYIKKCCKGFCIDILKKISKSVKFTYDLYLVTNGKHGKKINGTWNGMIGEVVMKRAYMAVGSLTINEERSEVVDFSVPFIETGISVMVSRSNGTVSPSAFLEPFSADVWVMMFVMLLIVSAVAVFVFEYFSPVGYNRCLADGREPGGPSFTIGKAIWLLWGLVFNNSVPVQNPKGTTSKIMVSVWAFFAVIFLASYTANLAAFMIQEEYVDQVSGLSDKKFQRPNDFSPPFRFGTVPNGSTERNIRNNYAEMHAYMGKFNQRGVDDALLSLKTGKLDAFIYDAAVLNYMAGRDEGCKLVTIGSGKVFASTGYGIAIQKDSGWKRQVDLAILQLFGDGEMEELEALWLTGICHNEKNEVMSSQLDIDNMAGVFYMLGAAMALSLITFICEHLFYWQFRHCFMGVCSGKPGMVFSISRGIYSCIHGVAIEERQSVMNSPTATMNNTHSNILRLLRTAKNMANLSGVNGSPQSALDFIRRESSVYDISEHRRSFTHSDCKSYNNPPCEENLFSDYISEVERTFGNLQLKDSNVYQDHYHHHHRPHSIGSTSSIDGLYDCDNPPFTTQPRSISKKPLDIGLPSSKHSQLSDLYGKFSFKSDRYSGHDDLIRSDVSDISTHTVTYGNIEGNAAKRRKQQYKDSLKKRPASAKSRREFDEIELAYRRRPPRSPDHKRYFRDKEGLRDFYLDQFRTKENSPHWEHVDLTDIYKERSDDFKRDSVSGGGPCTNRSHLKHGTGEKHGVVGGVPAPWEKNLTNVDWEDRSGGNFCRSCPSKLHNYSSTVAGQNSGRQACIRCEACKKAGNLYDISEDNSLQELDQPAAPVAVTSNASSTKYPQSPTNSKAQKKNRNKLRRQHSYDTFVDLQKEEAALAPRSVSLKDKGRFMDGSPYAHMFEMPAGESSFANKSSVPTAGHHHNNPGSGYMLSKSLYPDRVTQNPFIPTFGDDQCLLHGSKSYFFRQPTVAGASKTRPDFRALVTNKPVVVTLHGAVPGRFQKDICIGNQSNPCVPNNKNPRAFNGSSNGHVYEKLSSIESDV
Sequence of guinea pig σ1 receptor (Q60492 whole entry): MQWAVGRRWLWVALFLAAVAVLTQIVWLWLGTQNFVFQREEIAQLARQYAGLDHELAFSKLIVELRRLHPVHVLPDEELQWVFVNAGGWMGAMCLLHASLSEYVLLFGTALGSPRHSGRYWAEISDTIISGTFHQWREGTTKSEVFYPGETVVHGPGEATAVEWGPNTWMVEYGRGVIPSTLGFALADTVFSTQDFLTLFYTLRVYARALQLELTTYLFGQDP

Ki (PC12 cell σ2 receptors): 0.11 µM
Ki (guinea pig σ1 receptor): 0.042 µM
SMILES: COc1ccc2c(c1)CCN(CCCCc1ccc(C)cc1)CC2O (single isomer, unassigned; (-)) [(−)-NR2B-Me]

SMILES: COc1ccc(CCN2CCN(CCCc3ccccc3)CC2)cc1OC [SA4503]
Ki (σ1 receptor; ref 38, 43): 0.0046 µM
Ki (σ1 receptor; ref 41, 42): 0.0174 µM
effect of pre-administration on whole rat brain radioactivity uptake of GluN2B radioligands (GluN2B receptors [1]; ^11C-NR2B-Me enantiomers (also ^11C-(S)-NR2B-SMe)): strong pre-blocking effects
ED50 in rat whole brain in vivo ^11C-(+)-NR2B-Me (GluN2B receptors [1]; pre-blocking, radioligand ^11C-(+)-NR2B-Me, AUC 20-90 min): 41 nmol/kg
ED50 in rat whole brain in vivo ^11C-(−)-NR2B-Me (GluN2B receptors [1]; pre-blocking, AUC 20-90 min): 43 nmol/kg
Ki (σ2 receptor; ref 38, 43): 0.063 µM
Ki (σ2 receptor; ref 41, 42): 1.78 µM

ED50 in rat whole brain in vivo ^11C-(−)-NR2B-Me (GluN2B receptors [1]; pre-blocking, AUC 20-90 min): > 1000 nmol/kg
SMILES: COC(=O)C1(c2ccc(C)cc2)CC1CN1CCC(O)(c2ccccc2)CC1 (racemic) [( ±)-PPCC]
Ki (σ1 receptor; ref 45): 0.0015 µM
Ki (σ2 receptor; ref 45): 0.0508 µM

Ki (PC12 cell σ2 receptors): 0.1 µM
Ki (guinea pig σ1 receptor): 0.091 µM
SMILES: COc1ccc2c(c1)CCN(CCCCc1ccc(C)cc1)CC2O (single isomer, unassigned; (+)) [(+)-NR2B-Me]

SMILES: COc1ccc2c(c1)CCN(CCCCc1ccccc1[18F])C[C@@H]2O [^18F-(R)-OF-Me-NB1]
radioactivity in cerebellum as % of that in cortex [2, 5]: 73%
radioactivity in cerebellum as % of that in hippocampus [2, 5]: 74%
radioactivity in cerebellum as % of that in striatum [2, 5]: 77%
radioactivity in cerebellum as % of that in thalamus [2, 5]: 75%
SUVR relative to cerebellum, cortex [3]: 1.37
SUVR relative to cerebellum, hippocampus [3]: 1.36
SUVR relative to cerebellum, striatum [3]: 1.30
SUVR relative to cerebellum, thalamus [3]: 1.33

ED50 in rat whole brain in vivo ^11C-(−)-NR2B-Me (GluN2B receptors [1]; pre-blocking, AUC 20-90 min): > 1000 nmol/kg
SMILES: O=C(OCCN1CCOCC1)C1(c2ccccc2)CCCCC1 [PRE-084]

SMILES: Oc1ccc2c(c1)CCN(CCCCc1ccc([18F])cc1)C[C@@H]2O [(R)-^18F-PF-NB1]
radioactivity in cerebellum as % of that in cortex [2, 6]: 85%
radioactivity in cerebellum as % of that in hippocampus [2, 6]: 110%
radioactivity in cerebellum as % of that in striatum [2, 6]: 95%
radioactivity in cerebellum as % of that in thalamus [2, 6]: 92%

SMILES: COc1ccc2c(c1)CCN(CCCCc1ccc([11CH3])cc1)CC2O (stereo not drawn) [^11C-(−)-NR2B-Me]
BPND (SUVBL/SUVND−1), whole rat brain (GluN2B receptors [4]): 5
non-displaceable binding (X-axis intercept of Lassen plots) (GluN2B receptors [4]): about 0.42 SUV
displacement from peak value at 90 min (GluN2B receptors [4]): 63%

SMILES: COc1ccc2c(c1)CCN(CCCCc1ccc([11CH3])cc1)CC2O (stereo not drawn) [^11C-(+)-NR2B-Me]
BPND (SUVBL/SUVND−1), whole rat brain (GluN2B receptors [4]): 5
non-displaceable binding (X-axis intercept of Lassen plots) (GluN2B receptors [4]): about 0.42 SUV
displacement from peak value at 90 min (GluN2B receptors [4]): 46%
